Target: T1, HDM2 (Homo sapiens, UniProt Q00987)
T1 construct: Thioredoxin (N); made in house; host or cells: E. coli strain BL21(DE3)Rosetta
Assay: HDM2 FRET assay (inhibition of binding of FITC labeled p53-pocket peptide to HDM2)
Settings: 0.5 nM HDM2 (residues 17 to 125), 3nM peptide, two hour incubation at room temperature; read-out: FRET IC50
From the text: Methods: An HDM2 FRET assay was developed to assess the compounds' inhibitory activity towards binding of p53 protein. […] Protein was purified using Ni-affinity chromatography, followed by size exclusion chromatography using Superdex 75 26/60 column. […] The HDM2 assay buffer contained 1x Phosphate Buffered Saline (Invitrogen, Cat#14190), 0.01% BSA (Jackson ImmunoResearch, Cat# 001-000-162), 0.01% Tween-20. In the 1X assay buffer recombinant HDM2 protein, peptide and Lumi4-Tb Cryptate-conjugate mouse anti-6xHis antibody (cisbio, Cat#Tb61HISTLB) were added and transferred to ProxiPlate PLUS (PerkinElmer, Cat#6008269), containing compounds so that final DMSO concentration is 0.1% . Final concentrations of reagents in the assay wells are 0.5 nM HDM2, 0.25nM anti HIS (Tb label) antibody and 3nM peptide. […] Ratio of em520/em495 was used to calculate %inhibition and to obtain IC50 with 4-parameter logistic equation.
IC50 DETERMINATIONS: Dose-response curves were plotted from the inhibition data, from 10 point serial dilutions of inhibitory compounds. Concentration of compound was plotted against em520/Cem495 ratio signal. To generate IC50 values, the dose-response curves were fitted to a standard sigmoidal curve and IC50 values were derived by nonlinear regression analysis.

T1 sequence (Q00987 17-125): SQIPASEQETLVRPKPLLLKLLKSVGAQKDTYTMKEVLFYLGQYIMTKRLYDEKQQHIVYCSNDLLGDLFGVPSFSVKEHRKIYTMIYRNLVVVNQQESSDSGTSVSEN

Structure (SMILES)	IC50 [nM]
C[C@@H](Nc1nc([S+](C)[O-])nc2nc(N3CCOC[C@H]3c3ccccc3)n(C[C@H]3CC[C@H](C)CC3)c12)C1CCC1 (single isomer, unassigned) [Example 14.2]	10.5
C[C@@H](Nc1nc([S+](C)[O-])nc2nc(N3CCOC[C@H]3c3ccccc3)n(C[C@H]3CC[C@H](C)CC3)c12)C1CCC1 (single isomer, unassigned) [Example 14.3]	57.4
C[C@@H](Nc1nc(S(C)(=O)=O)nc2nc(N3CCCCC3c3ccccc3)n(C[C@H]3CC[C@H](C)CC3)c12)C1CCC1 (single isomer, unassigned) [Example 14.10]	109
C[C@H]1CC[C@H](Cn2c(N3CCCC4COCCC43)nc3nc(-c4noc(=O)[nH]4)nc(-c4cccc(Cl)c4)c32)CC1 (single isomer, unassigned) [Example 16.118, 3-{6-(3-chlorophenyl)-8-(hexahydro-2H-pyrano[4,3-b]pyridin-1(5H)-yl)-7-[(trans-4-methylcyclohexyl)methyl]-7H-purin-2-yl}-1,2,4-oxadiazol-5(4H)-one]	22.2

Same assay, conditions: Table 11; read-out: FRET IC50

Structure (SMILES)	IC50 [nM]
C[C@@H](Nc1nc(-c2noc(=O)[nH]2)nc2nc(N3CCOC4CCCC43)n(C[C@H]3CC[C@H](C)CC3)c12)C1CCC1 (single isomer, unassigned) [Example 11.131]	7.02
C[C@@H](Nc1nc(-c2noc(=O)[nH]2)nc2nc(N3CCOC4CCCC43)n(C[C@H]3CC[C@H](C)CC3)c12)C1CCC1 (single isomer, unassigned) [Example 11.133]	0.344
C[C@@H](Nc1nc(-c2noc(=O)[nH]2)nc2nc(N3CCCC3c3ccccc3)n(C[C@H]3CC[C@H](C)CC3)c12)C1CCC1 (single isomer, unassigned) [Example 11.135]	2.08
C[C@@H](Nc1nc(-c2noc(=O)[nH]2)nc2nc(N3CCCC3c3ccccc3)n(C[C@H]3CC[C@H](C)CC3)c12)C1CCC1 (single isomer, unassigned) [Example 11.136]	514
C[C@@H](Nc1nc(-c2n[nH]c(=O)o2)nc2nc(N3CCOC4CCCC43)n(C[C@H]3CC[C@H](C)CC3)c12)C1CCC1 (single isomer, unassigned) [Example 11.140]	9.87
C[C@@H](Nc1nc(-c2n[nH]c(=O)o2)nc2nc(N3CCOC4CCCC43)n(C[C@H]3CC[C@H](C)CC3)c12)C1CCC1 (single isomer, unassigned) [Example 11.141]	0.841
C[C@@H](Nc1nc(-c2noc(=O)[nH]2)nc2nc(N3CCOC4CCCC43)n(C[C@H]3CC[C@H](C)CC3)c12)C1CCC1 (single isomer, unassigned) [Example 11.148]	23.8
C[C@@H](Nc1nc(-c2noc(=O)[nH]2)nc2nc(N3CCOC4CCCC43)n(C[C@H]3CC[C@H](C)CC3)c12)C1CCC1 (single isomer, unassigned) [Example 11.149]	3.58
COCC1COCCN1c1nc2nc(-c3noc(=O)[nH]3)nc(N[C@H](C)C3CCC3)c2n1C[C@H]1CC[C@H](C)CC1 (single isomer, unassigned) [Example 11.150]	6.73
COCC1COCCN1c1nc2nc(-c3noc(=O)[nH]3)nc(N[C@H](C)C3CCC3)c2n1C[C@H]1CC[C@H](C)CC1 (single isomer, unassigned) [Example 11.151]	20.9
C[C@@H](Nc1nc(-c2noc(=O)[nH]2)nc2nc(N3CCCC3C[S+](C)[O-])n(C[C@H]3CC[C@H](C)CC3)c12)C1CCC1 (single isomer, unassigned) [Example 11.154]	70.7
C[C@@H](Nc1nc(-c2noc(=O)[nH]2)nc2nc(N3CCCC3C[S+](C)[O-])n(C[C@H]3CC[C@H](C)CC3)c12)C1CCC1 (single isomer, unassigned) [Example 11.155]	165
C[C@@H](Nc1nc(-c2n[nH]c(=O)o2)nc2nc(N3CCO[C@H](C)[C@@H]3C)n(C[C@H]3CC[C@H](C)CC3)c12)C1CCC1 (single isomer, unassigned) [Example 11.157]	47
C[C@@H](Nc1nc(-c2n[nH]c(=O)o2)nc2nc(N3CCO[C@H](C)[C@@H]3C)n(C[C@H]3CC[C@H](C)CC3)c12)C1CCC1 (single isomer, unassigned) [Example 11.158]	12.9
C[C@@H](Nc1nc(-c2n[nH]c(=O)o2)nc2nc(N3CCO[C@H]4CCCC[C@H]43)n(C[C@H]3CC[C@H](C)CC3)c12)C1CCC1 (single isomer, unassigned) [Example 11.161]	29.5
C[C@@H](Nc1nc(-c2n[nH]c(=O)o2)nc2nc(N3CCO[C@H]4CCCC[C@H]43)n(C[C@H]3CC[C@H](C)CC3)c12)C1CCC1 (single isomer, unassigned) [Example 11.162]	7.4

Same assay, conditions: Table 18; read-out: FRET IC50

Structure (SMILES)	IC50 [nM]
CC([C@H]1CC[C@H](C)CC1)n1c(N2CCOC[C@H]2C)nc2nc(-c3noc(=O)[nH]3)nc(N[C@H](C)C3CCC3)c21 (single isomer, unassigned) [Example 18.12]	2.82
CC([C@H]1CC[C@H](C)CC1)n1c(N2CCOC[C@H]2C)nc2nc(-c3noc(=O)[nH]3)nc(N[C@H](C)C3CCC3)c21 (single isomer, unassigned) [Example 18.13]	2.27
CC([C@H]1CC[C@H](C)CC1)n1c(N2CCOC[C@H]2c2ccccc2)nc2nc(-c3n[nH]c(=O)o3)nc(-c3cncc(Cl)c3)c21 (single isomer, unassigned) [Example 18.14]	0.62
CC([C@H]1CC[C@H](C)CC1)n1c(N2CCOC[C@H]2C)nc2nc(-c3n[nH]c(=O)o3)nc(-c3cccc(Cl)c3)c21 (single isomer, unassigned) [Example 18.35]	5.04
CC([C@H]1CC[C@H](C)CC1)n1c(N2CCOC[C@H]2C)nc2nc(-c3n[nH]c(=O)o3)nc(-c3cccc(Cl)c3)c21 (single isomer, unassigned) [Example 18.36]	8.87
CC([C@H]1CC[C@H](C)CC1)n1c(N2CCC[C@H]2CF)nc2nc(-c3noc(=O)[nH]3)nc(-c3cncc(Cl)c3)c21 (single isomer, unassigned) [Example 18.45]	2.42
CC([C@H]1CC[C@H](C)CC1)n1c(N2CCC[C@H]2CF)nc2nc(-c3noc(=O)[nH]3)nc(-c3cncc(Cl)c3)c21 (single isomer, unassigned) [Example 18.46]	5.49
CC([C@H]1CC[C@H](C)CC1)n1c(N2CCC[C@H]2CF)nc2nc(-c3n[nH]c(=O)o3)nc(-c3cncc(Cl)c3)c21 (single isomer, unassigned) [Example 18.47]	5.14
CC([C@H]1CC[C@H](C)CC1)n1c(N2CCC[C@H]2CF)nc2nc(-c3n[nH]c(=O)o3)nc(-c3cncc(Cl)c3)c21 (single isomer, unassigned) [Example 18.48]	8.12
CC[C@@H]1COCCN1c1nc2nc(-c3noc(=O)[nH]3)nc(-c3cccc(Cl)c3)c2n1C(C)[C@H]1CC[C@H](C)CC1 (single isomer, unassigned) [Example 18.50]	7.04
CC[C@@H]1COCCN1c1nc2nc(-c3noc(=O)[nH]3)nc(-c3cccc(Cl)c3)c2n1C(C)[C@H]1CC[C@H](C)CC1 (single isomer, unassigned) [Example 18.51]	10.5

Same assay, conditions: Table 21; read-out: FRET IC50

Structure (SMILES)	IC50 [nM]
C[C@@H](Nc1nc(C(=O)O)nc2nc(C3CCCCC3c3ccccc3)n(Cc3ccc(C(F)(F)F)cc3)c12)C1CCC1 (single isomer, unassigned) [Example 21.1]	10.2
C[C@@H](Nc1nc(C(=O)O)nc2nc(C3CCCCC3c3ccccc3)n(Cc3ccc(C(F)(F)F)cc3)c12)C1CCC1 (single isomer, unassigned) [Example 21.2]	2.36
C[C@@H](Nc1nc(C(=O)O)nc2nc(C3CCCC3c3ccccc3)n(Cc3ccc(C(F)(F)F)cc3)c12)C1CCC1 (single isomer, unassigned) [Example 21.5]	26.5
C[C@@H](Nc1nc(C(=O)O)nc2nc(C3CCCC3c3ccccc3)n(Cc3ccc(C(F)(F)F)cc3)c12)C1CCC1 (single isomer, unassigned) [Example 21.6]	1.36
C[C@@H](Nc1nc(C(=O)O)nc2nc(C3COCC3c3ccccc3)n(Cc3ccc(C(F)(F)F)cc3)c12)C1CCC1 (single isomer, unassigned) [Example 21.7]	28.7
C[C@@H](Nc1nc(C(=O)O)nc2nc(C3COCC3c3ccccc3)n(Cc3ccc(C(F)(F)F)cc3)c12)C1CCC1 (single isomer, unassigned) [Example 21.8]	3.8
CC(c1ccccc1)c1nc2nc(-c3noc(=O)[nH]3)nc(N[C@H](C)C3CCC3)c2n1C[C@H]1CC[C@H](C)CC1 (single isomer, unassigned) [Example 21.14]	19.8
CC(c1ccccc1)c1nc2nc(-c3noc(=O)[nH]3)nc(N[C@H](C)C3CCC3)c2n1C[C@H]1CC[C@H](C)CC1 (single isomer, unassigned) [Example 21.15]	2.04
C[C@@H](Nc1nc(-c2noc(=O)[nH]2)nc2nc(C3CCCCC3c3ccccc3)n(C[C@H]3CC[C@H](C)CC3)c12)C1CCC1 (single isomer, unassigned) [Example 21.25]	28.9

Same assay, conditions: read-out: % inh. at 1000 nM; at 1000 nM compound

Structure (SMILES)	inhibition at 1 µM [%]
C[C@@H](Nc1nc(S(C)(=O)=O)nc2nc(N3CCCCC3c3ccccc3)n(C[C@H]3CC[C@H](C)CC3)c12)C1CCC1 (single isomer, unassigned) [Example 14.9]	46

Reference: patent EP2951180B1, “2,6,7,8 SUBSTITUTED PURINES AS HDM2 INHIBITORS” (Merck Sharp & Dohme Corp., priority 2013, dated 2014)
